Laboratory results reported in patent US20230279025A1, “KRAS G12D INHIBITORS” (Mirati Therapeutics, Inc., priority 2020, published 2023).

Biological target: KRas G12D (Homo sapiens (Human), UniProt P01116, G12D)
Experiment: KRas G12D Binding Assay (TR-FRET displacement of Cy5 labelled tracer)
Conditions: GDP-loaded KRAS G12D (amino acids 1:169), 60 minute incubation at 22° C.
Procedure: After a 60 minute incubation at 22° C., the reaction was measured using a PerkinElmer EnVision multimode plate reader via TR-FRET dual wavelength detection, and the percent of control (POC) calculated using a ratiometric emission factor. […] The POC values were fit to a 4-parameter logistic curve and the IC50 value was determined as the concentration where the curve crosses 50 POC.
ND stands for “not determined.”

Chain of KRas G12D (P01116 other isoform, or with tags, fused parts or gaps G12D): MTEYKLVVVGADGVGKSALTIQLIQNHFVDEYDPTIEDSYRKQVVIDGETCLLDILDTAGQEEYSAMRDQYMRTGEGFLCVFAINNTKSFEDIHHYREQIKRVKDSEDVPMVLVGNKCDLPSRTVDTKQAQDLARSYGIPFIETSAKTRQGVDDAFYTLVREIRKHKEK

Row | SMILES | IC50
1 | C#Cc1c(F)ccc2cccc(-c3ncc4c(N5C[C@H]6CC[C@@H](C5)N6)nc(OCC56CCCN5CCC6)nc4c3F)c12 [Example 189, 4-((1R,5S)-3,8-diazabicyclo[3.2.1]octan-3-yl)-7-(8-ethynyl-7-fluoronaphthalen-1-yl)-8-fluoro-2-((tetrahydro-1H-pyrrolizin-7a(5H)-yl)methoxy)pyrido[4,3-d]pyrimidine] | 0.5 nM
2 | Oc1cc(-c2ncc3c(N4C[C@H]5CC[C@@H](C4)N5)nc(OCC45CCCN4CCC5)nc3c2F)c2c(Cl)c(F)ccc2c1 [Example 245, 4-(4-((1R,5S)-3,8-diazabicyclo[3.2.1]octan-3-yl)-8-fluoro-2-((hexahydro-1H-pyrrolizin-7a-yl)methoxy)pyrido[4,3-d]pyrimidin-7-yl)-5-chloro-6-fluoronaphthalen-2-ol] | 0.5 nM
3 | Fc1c(-c2cccc3cccc(Cl)c23)ncc2c(N3C[C@H]4CC[C@@H](C3)N4)nc(OCC34CC(F)CN3CC(F)C4)nc12 (stereo partly drawn) [Example 425, 4-((1R,5S)-3,8-diazabicyclo[3.2.1]octan-3-yl)-7-(8-chloronaphthalen-1-yl)-2-((2,6-difluorohexahydro-1H-pyrrolizin-7a-yl)methoxy)-8-fluoropyrido[4,3-d]pyrimidine] | 90.2 nM
4 | Fc1cccc(-c2ncc3c(N4C[C@H]5CC[C@@H](C4)N5)nc(OCC45CCCN4CCC5)nc3c2F)c1C(F)(F)F [Example 292, 4-((1R,5S)-3,8-diazabicyclo[3.2.1]octan-3-yl)-8-fluoro-7-(3-fluoro-2-(trifluoromethyl)phenyl)-2-((tetrahydro-1H-pyrrolizin-7a(5H)-yl)methoxy)pyrido[4,3-d]pyrimidine] | 13.1 nM
5 | Cc1ccccc1-c1ncc2c(N3C[C@H]4CC[C@@H](C3)N4)nc(OCC34CCCN3CCC4)nc2c1F [Example 272, 4-((1R,5S)-3,8-diazabicyclo[3.2.1]octan-3-yl)-8-fluoro-2-((hexahydro-1H-pyrrolizin-7a-yl)methoxy)-7-(o-tolyl)pyrido[4,3-d]pyrimidine] | 1180 nM
6 | Fc1ccc2cccc(-c3ncc4c(N5C[C@H]6CC[C@@H](C5)N6)nc(OCC56CCCN5CCC6)nc4c3F)c2c1Cl [Example 98, 4-((1R,5S)-3,8-diazabicyclo[3.2.1]octan-3-yl)-7-(8-chloro-7-fluoronaphthalen-1-yl)-8-fluoro-2-((tetrahydro-1H-pyrrolizin-7a(5H)-yl)methoxy)pyrido[4,3-d]pyrimidine bis(2,2,2-trifluoroacetate)] | 1 nM
7 | CC(C)(C)[Si](C)(C)OCC1CCC2(COc3nc(N4C[C@H]5CC[C@@H](C4)N5)c4cnc(-c5cccc6cccc(Cl)c56)c(F)c4n3)CCCN12 (stereo partly drawn) [Example 64, 4-((1R,5S)-3,8-diazabicyclo[3.2.1]octan-3-yl)-2-((3-(((tert-butyldimethylsilyl)oxy)methyl)tetrahydro-1H-pyrrolizin-7a(5H)-yl)methoxy)-7-(8-chloronaphthalen-1-yl)-8-fluoropyrido[4,3-d]pyrimidine] | 3.3 nM
8 | Fc1ccc2cccc(-c3ncc4c(N5C[C@H]6CC[C@@H](C5)N6)nc(OCC56CCCN5CCC6)nc4c3F)c2c1 [Example 460, 4-((1R,5S)-3,8-diazabicyclo[3.2.1]octan-3-yl)-8-fluoro-7-(7-fluoronaphthalen-1-yl)-2-((hexahydro-1H-pyrrolizin-7a-yl)methoxy)pyrido[4,3-d]pyrimidine] | 0.027 nM
9 | O[C@@H]1C[C@@H]2CN(c3nc(N4CCC4)nc4c(F)c(-c5cccc6cccc(Cl)c56)ncc34)C[C@H]1N2 [Example 152, (1R,5R,6R)-3-(2-(azetidin-1-yl)-7-(8-chloronaphthalen-1-yl)-8-fluoropyrido[4,3-d]pyrimidin-4-yl)-3,8-diazabicyclo[3.2.1]octan-6-ol] | 2650 nM
10 | Nc1nccn1CCOc1nc(N2CC3CCC(C2)N3)c2cnc(-c3cccc4cccc(Cl)c34)c(F)c2n1 [Example 178, 1-[2-[7-(8-chloro-1-naphthyl)-4-(3,8-diazabicyclo[3.2.1]octan-3-yl)-8-fluoro-pyrido[4,3-d]pyrimidin-2-yl]oxyethyl]imidazol-2-amine] | 105 nM
11 | C#Cc1cccc2cc(O)cc(-c3ncc4c(N5CC6CCC(C5)N6)nc(OC[C@@]56CCCN5C[C@H](OC)C6)nc4c3F)c12 (stereo in doubt) [Example 410, 4-(4-((1R,5S)-3,8-diazabicyclo[3.2.1]octan-3-yl)-8-fluoro-2-((2-methoxytetrahydro-1H-pyrrolizin-7a(5H)-yl)methoxy)pyrido[4,3-d]pyrimidin-7-yl)-5-ethynylnaphthalen-2-ol] | 1 nM
12 | CC(C)c1ccc(O)cc1-c1ncc2c(N3C[C@H]4CC[C@@H](C3)N4)nc(OCC34CCCN3CCC4)nc2c1F [Example 403, 3-(4-((1R,5S)-3,8-diazabicyclo[3.2.1]octan-3-yl)-8-fluoro-2-((tetrahydro-1H-pyrrolizin-7a(5H)-yl)methoxy)pyrido[4,3-d]pyrimidin-7-yl)-4-isopropylphenol] | 1.9 nM
13 | C[C@@H]1C[C@H]1c1ccccc1-c1ncc2c(N3C[C@H]4CC[C@@H](C3)N4)nc(OCC34CCCN3CCC4)nc2c1F [Example 288, 4-((1R,5S)-3,8-diazabicyclo[3.2.1]octan-3-yl)-8-fluoro-2-((hexahydro-1H-pyrrolizin-7a-yl)methoxy)-7-(2-((1R,2R)-2-methylcyclopropyl)phenyl)pyrido[4,3-d]pyrimidine] | 590 nM
14 | CC(Oc1nc(N2C[C@H]3CC[C@@H](C2)N3)c2cnc(-c3cccc4cccc(F)c34)c(F)c2n1)C12CCCN1CCC2 (stereo partly drawn) [Example 450, 4-((1R,5S)-3,8-diazabicyclo[3.2.1]octan-3-yl)-8-fluoro-7-(8-fluoronaphthalen-1-yl)-2-(1-(hexahydro-1H-pyrrolizin-7a-yl)ethoxy)pyrido[4,3-d]pyrimidine] | 37 nM
15 | CN1CC[C@@H](Oc2nc(N3C[C@H]4CC[C@@H](C3)N4)c3cnc(-c4cccc5cccc(Cl)c45)c(F)c3n2)C1 [Example 358, 4-((1R,5S)-3,8-diazabicyclo[3.2.1]octan-3-yl)-7-(8-chloronaphthalen-1-yl)-8-fluoro-2-(((R)-1-methylpyrrolidin-3-yl)oxy)pyrido[4,3-d]pyrimidine] | 1980 nM
16 | N#CC[C@@H]1C[C@@H]2CN(c3nc(OCC45CCCN4CCC5)nc4c(F)c(-c5cc(O)cc6ccccc56)ncc34)C[C@H]1N2 [Example 338, 2-((1R,5S,6S)-3-(8-fluoro-7-(3-hydroxynaphthalen-1-yl)-2-((tetrahydro-1H-pyrrolizin-7a(5H)-yl)methoxy)pyrido[4,3-d]pyrimidin-4-yl)-3,8-diazabicyclo[3.2.1]octan-6-yl)acetonitrile] | 33.1 nM
17 | COC(c1ccc(O)cc1-c1ncc2c(N3CC4CCC(C3)N4)nc(OC[C@@]34CCCN3C[C@H](F)C4)nc2c1F)C(F)(F)F (stereo in doubt) [Example 390, 3-(4-((1R,5S)-3,8-diazabicyclo[3.2.1]octan-3-yl)-8-fluoro-2-((2-fluorotetrahydro-1H-pyrrolizin-7a(5H)-yl)methoxy)pyrido[4,3-d]pyrimidin-7-yl)-4-(2,2,2-trifluoro-1-methoxyethyl)phenol] | 36.8 nM
18 | Fc1c(-c2ccccc2C(F)(F)F)ncc2c(N3C[C@H]4CC[C@@H](C3)N4)nc(OCC34CCCN3CCC4)nc12 [Example 370, 4-((1R,5S)-3,8-diazabicyclo[3.2.1]octan-3-yl)-8-fluoro-2-((tetrahydro-1H-pyrrolizin-7a(5H)-yl)methoxy)-7-(2-(trifluoromethyl)phenyl)pyrido[4,3-d]pyrimidine] | 86.1 nM
19 | COC1(OC)CN2CCCC2(COc2nc(N3C[C@H]4CC[C@@H](C3)N4)c3cnc(-c4cccc5cccc(Cl)c45)c(F)c3n2)C1 (stereo partly drawn) [Example 404, 4-((1R,5S)-3,8-diazabicyclo[3.2.1]octan-3-yl)-7-(8-chloronaphthalen-1-yl)-2-((2,2-dimethoxytetrahydro-H-pyrrolizin-7a(5H)-yl)methoxy)-8-fluoropyrido[4,3-d]pyrimidine] | 60.8 nM
20 | Fc1c(-c2cccc3c2CCC3)ncc2c(N3CC4CCC(C3)N4)nc(OC[C@@]34CCCN3C[C@H](F)C4)nc12 [Example 428, 4-(3,8-diazabicyclo[3.2.1]octan-3-yl)-7-(2,3-dihydro-1H-inden-4-yl)-8-fluoro-2-(((2R,7aS)-2-fluorotetrahydro-1H-pyrrolizin-7a(5H)-yl)methoxy)pyrido[4,3-d]pyrimidine] | 92.1 nM
21 | Fc1c(-c2c3ccccc3cc3[nH]ncc23)ncc2c(N3C[C@H]4CC[C@@H](C3)N4)nc(OCC34CCCN3CCC4)nc12 [Example 257, 4-(4-((1R,5S)-3,8-diazabicyclo[3.2.1]octan-3-yl)-8-fluoro-2-((hexahydro-1H-pyrrolizin-7a-yl)methoxy)pyrido[4,3-d]pyrimidin-7-yl)-1H-benzo[f]indazole] | 5.1 nM
22 | C#Cc1c(F)ccc2cccc(-c3ncc4c(N5C[C@H]6CC[C@@H](C5)N6)nc(OC[C@@]56CCCN5C[C@H](F)C6)nc4c3F)c12 [Example 281, 4-((1R,5S)-3,8-diazabicyclo[3.2.1]octan-3-yl)-7-(8-ethynyl-7-fluoronaphthalen-1-yl)-8-fluoro-2-(((2R,7aS)-2-fluorohexahydro-1H-pyrrolizin-7a-yl)methoxy)pyrido[4,3-d]pyrimidine] | 0.9 nM
23 | Oc1cc(-c2ncc3c(N4C[C@H]5CC[C@@H](C4)N5)ncnc3c2F)c2ccccc2c1 [Example 181, 4-(4-((1R,5S)-3,8-diazabicyclo[3.2.1]octan-3-yl)-8-fluoropyrido[4,3-d]pyrimidin-7-yl)naphthalen-2-ol] | 572 nM
24 | Cc1cc2sc(N)nc2c(-c2ncc3c(N4C[C@H]5CC[C@@H](C4)N5)nc(OCC45CCCN4CCC5)nc3c2F)c1C [Example 456, 4-(4-((1R,5S)-3,8-diazabicyclo[3.2.1]octan-3-yl)-8-fluoro-2-((hexahydro-1H-pyrrolizin-7a-yl)methoxy)pyrido[4,3-d]pyrimidin-7-yl)-5,6-dimethylbenzo[d]thiazol-2-amine] | 966 nM
